Test results reported in patent publication US20160015770A1, “COMPOSITIONS FOR TREATMENT OF RETINAL DETACHMENT” (THE REGENTS OF THE UNIVERSITY OF MICHIGAN, priority 2013, published 2016).
Non-standard residues stand in square brackets, D forms with d. Residues, ends and D or L forms follow the SMILES beside them. *: point of attachment. Nle = CCCC[C@H](N)C(=O)O; Cbz = O=C(OCc1ccccc1)*

Legend:
[1] = molecular target: T1, calpain 1 (Mus musculus, UniProt O35350); experiment: Western blot of calpain 1 specific cleaved alpha-spectrin in 661W cells treated with Fas activating antibody; assay type: cell-based; details: 24 hours, inhibitor added 1 hour before Fas activating antibody, compared to Fas activation alone
T1 construct: endogenous in cells; host or cells: 661W mouse photoreceptor cell line
T1 sequence (O35350 1-713): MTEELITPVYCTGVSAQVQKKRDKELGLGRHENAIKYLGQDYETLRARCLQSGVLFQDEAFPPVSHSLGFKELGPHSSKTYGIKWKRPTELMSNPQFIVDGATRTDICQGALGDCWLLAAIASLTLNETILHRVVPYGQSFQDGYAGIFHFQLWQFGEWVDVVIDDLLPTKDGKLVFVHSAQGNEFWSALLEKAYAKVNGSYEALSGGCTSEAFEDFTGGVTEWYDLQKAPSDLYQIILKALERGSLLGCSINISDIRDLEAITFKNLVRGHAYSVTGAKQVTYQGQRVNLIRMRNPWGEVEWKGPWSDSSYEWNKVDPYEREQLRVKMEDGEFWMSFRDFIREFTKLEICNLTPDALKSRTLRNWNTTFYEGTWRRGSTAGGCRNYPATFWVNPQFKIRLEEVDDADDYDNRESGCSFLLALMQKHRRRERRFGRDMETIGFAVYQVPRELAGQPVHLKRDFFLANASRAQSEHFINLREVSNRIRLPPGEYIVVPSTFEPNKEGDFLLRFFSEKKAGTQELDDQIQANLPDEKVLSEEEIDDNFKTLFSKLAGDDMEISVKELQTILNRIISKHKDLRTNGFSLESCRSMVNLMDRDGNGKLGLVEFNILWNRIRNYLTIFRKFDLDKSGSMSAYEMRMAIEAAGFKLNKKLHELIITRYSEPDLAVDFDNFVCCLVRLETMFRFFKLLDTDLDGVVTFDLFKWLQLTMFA
T1 sequence (O88456 1-268 partner): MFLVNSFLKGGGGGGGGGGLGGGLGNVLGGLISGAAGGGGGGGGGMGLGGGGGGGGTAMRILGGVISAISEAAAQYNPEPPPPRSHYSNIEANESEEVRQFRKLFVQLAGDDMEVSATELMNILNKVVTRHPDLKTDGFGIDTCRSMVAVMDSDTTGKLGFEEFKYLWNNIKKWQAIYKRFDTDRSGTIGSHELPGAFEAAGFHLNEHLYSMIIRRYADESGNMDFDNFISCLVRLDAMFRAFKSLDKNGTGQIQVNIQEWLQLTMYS
Protocol: The 661W photoreceptor cell line was generously provided by Dr. Muayyad Al-Ubaidi (Department of Cell Biology, University of Oklahoma Health Sciences Center, Oklahoma City, Okla.). The 661W cell line was maintained in Dulbecco's modified Eagle's medium containing 10% fetal bovine serum, 300 mg/L glutamine, 32 mg/L putrescine, 40 μL/L β-mercaptoethanol, and 40 μg/L of both hydrocortisone 21-hemisuccinate and progesterone. The media also contained penicillin (90 units/mL) and streptomycin (0.09 mg/mL). Cells were grown at 37° C. in a humidified atmosphere of 5% CO2 and 95% air.
Retinas from experimental eyes with detachment (detached portion of retina only) and control eyes without detachment were dissected from the RPE-choroid, homogenized, and lysed in buffer containing 10 mM HEPES (pH 7.6), 0.5% IgEPal, 42 mM KCl, 1 mM phenylmethylsulfonyl fluoride, 1 mM EDTA, 1 mM EGTA, 1 mM dithiothreitol, 5 mM MgCl2, and one tablet of protease inhibitors per 10 mL buffer (Complete Mini; Roche Diagnostics GmbH, Madison, Wis.). 661W cells were plated at 150,000 cells per well in six-well culture dishes in growth media. After 24 hours, the cells were washed one time with warmed PBS solution and then placed in growth media without fetal bovine serum. Depending on experimental conditions, 500 ng/mL Fas activating antibody (BD Biosciences, San Jose, Calif.) and various calpain inhibitors including MDG-28170 (Sigma, St. Louis, Mo.), MG-101 (Sigma, St. Louis, Mo.), calpeptin (Santa Cruz Biotechnology, Santa Cruz, Calif.) or equal volume of DMSO was added. Calpain inhibitors were added 1 hour prior to the addition of Fas activating antibody. The cells were incubated for various lengths of time and then lysed and homogenized in lysis buffer. The homogenates were incubated on ice and centrifuged at 22,000 g at 4° C. for 60 minutes. The protein concentration of the supernatant was then determined (DC Protein Assay kit; Bio-Rad Laboratories, Hercules, Calif.). The protein samples were separated on SDS-polyacrylamide gels (Tris-HCl Ready Gels; Bio-Rad Laboratories). After electrophoretic separation, the proteins were transferred onto polyvinylidene fluoride membranes (Immobilon-P; Millipore, Billerica, Mass.). Membranes were then immunoblotted with antibodies according to the manufacturer's instructions. The following antibodies were used: LC3b (Cell Signaling, Beverly, Mass.), Atg5 (Abgent, San Diego, Calif.), Atg12 (Cell Signaling, Beverly, Mass.), calpain 1 (Cell Signaling, Beverly, Mass.), alpha-spectrin (Santa Cruz Biotechnology, Santa Cruz, Calif.), actin (Sigma, St. Louis, Mo.), and GAPDH (Abcam, Cambridge, Mass.).
After determining calpain 1 levels, it was looked to correlate this with calpain activity. […]

[2] = test system: detached retina; experiment: Experimental retinal detachment, western blot of autophagy markers (Atg5, Atg5-12, LC3-II) in retina; assay type: in vivo; details: rat, 50 μg subretinal at time of detachment, 7 days, vs detachments alone
Protocol: All experiments were performed in accordance with the ARVO Statement for the Use of Animals in Ophthalmic and Vision Research and the guidelines established by the University Committee on Use and Care of Animals of the University of Michigan. Detachments were created in adult male Brown-Norway rats (300-400 g; Charles River Laboratories, Wilmington, Mass.) as described previously. Briefly, rodents were anesthetized with a 50:50 mix of ketamine/xylazine, and pupils were dilated with topical phenylephrine (2.5%) and tropicamide (1%). A 20-gauge microvitreoretinal blade was used to create a sclerotomy 2 mm posterior to the limbus, carefully avoiding lens damage. A subretinal injector (Glaser, 32-gauge tip; BD Ophthalmic Systems, Franklin Lakes, N.J.) was introduced through the sclerotomy into the vitreous cavity and then through a peripheral retinotomy into the subretinal space. Sodium hyaluronate (10 mg/mL, Healon OVD; Abbott Medical Optics, Uppsala, Sweden) was slowly injected to detach the neurosensory retina from the underlying RPE. In all experiments, approximately one third to one half of the neurosensory retina was detached. Detachments were created in the left eye. The right eye served as the control, with all the steps of the procedure performed except for introduction of the subretinal injector and injection of the sodium hyaluronate. […]
Retinas from experimental eyes with detachment (detached portion of retina only) and control eyes without detachment were dissected from the RPE-choroid, homogenized, and lysed in buffer containing 10 mM HEPES (pH 7.6), 0.5% IgEPal, 42 mM KCl, 1 mM phenylmethylsulfonyl fluoride, 1 mM EDTA, 1 mM EGTA, 1 mM dithiothreitol, 5 mM MgCl2, and one tablet of protease inhibitors per 10 mL buffer (Complete Mini; Roche Diagnostics GmbH, Madison, Wis.). […] The protein concentration of the supernatant was then determined (DC Protein Assay kit; Bio-Rad Laboratories, Hercules, Calif.). The protein samples were separated on SDS-polyacrylamide gels (Tris-HCl Ready Gels; Bio-Rad Laboratories). […]

[3] = test system: detached retina; details: 7 days, compared to untreated detached retinas, prior work (ref 12); cited from earlier work

CC(C)[C@H](NC(=O)OCc1ccccc1)C(=O)N[C@H](C=O)Cc1ccccc1 [MDG-28170] (Cbz-Val-Phe-aldehyde)
cleaved alpha-spectrin levels [1]: decreased

CO/C1=C\C(C)=C\[C@@H](C)[C@@H](O)[C@@H](C)C/C(C)=C/C=C/[C@H](OC)[C@@H]([C@@H](C)[C@@H](O)[C@H](C)[C@@]2(O)C[C@@H](O)[C@H](C)[C@@H](C(C)C)O2)OC1=O [Bafilomycin-a]
Atg5-12 levels in retina [2]: did not appear to be any increase | Atg5-12 levels in retina ([2]; listed as Baf-a): no significant difference | LC3-II level in retina [3]: remain elevated

CCCC[C@@H](C=O)NC(=O)[C@H](CC(C)C)NC(=O)[C@H](CC(C)C)NC(C)=O [MG-101] (Ac-Leu-Leu-[Nle]-aldehyde)
cleaved alpha-spectrin levels [1]: decreased
